We go through 17 compounds from US11919901B2 (Syndax Pharmaceuticals, Inc., priority 2021, dated 2024).

The Ki is the dissociation constant of the complex between target and ligand, obtained from inhibition or displacement. The term IC50 denotes the concentration that gives 50% inhibition. One may read the EC50 as the concentration at which the effect is half-maximal.

The target of one data set is Menin-MLL (Homo sapiens (Human), UniProt O00255). The experiment in a line: Determination of binding constants (Ki) to Menin-MLL (HTRF). Conditions: HTRF, 0.25 nM H-FL-Menin, 3.2 nM FITC-MLL-4-43, 24 hr incubation; for Ki: read-out: Menin-MLL Ki HTRF Assay: Ki. For orientation: Time-resolved FRET reads energy transfer from a long-lived donor to a nearby acceptor.
Sequence of Menin-MLL (O00255 whole entry): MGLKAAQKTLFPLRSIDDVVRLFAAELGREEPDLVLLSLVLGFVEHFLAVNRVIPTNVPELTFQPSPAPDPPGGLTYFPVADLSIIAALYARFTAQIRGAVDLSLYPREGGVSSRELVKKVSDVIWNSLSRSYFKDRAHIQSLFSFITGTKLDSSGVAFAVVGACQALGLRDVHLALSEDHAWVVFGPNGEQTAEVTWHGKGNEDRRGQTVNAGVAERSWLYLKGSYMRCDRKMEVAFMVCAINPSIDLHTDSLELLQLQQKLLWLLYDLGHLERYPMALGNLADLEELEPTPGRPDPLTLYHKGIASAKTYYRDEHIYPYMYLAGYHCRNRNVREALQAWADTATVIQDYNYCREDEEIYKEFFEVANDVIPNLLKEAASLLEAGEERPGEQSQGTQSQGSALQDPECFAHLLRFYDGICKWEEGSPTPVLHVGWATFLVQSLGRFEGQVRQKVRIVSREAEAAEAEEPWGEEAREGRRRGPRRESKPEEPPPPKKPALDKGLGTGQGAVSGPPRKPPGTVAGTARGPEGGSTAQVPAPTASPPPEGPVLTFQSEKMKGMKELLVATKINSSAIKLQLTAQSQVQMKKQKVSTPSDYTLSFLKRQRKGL
A further data set addresses hERG (Homo sapiens (Human), UniProt Q12809). The data set is described as follows: Patch clamp assay (hERG tail currents, whole-cell). To be noted: hERG transfected HEK 293 cells; for hERG % Remaining 10 μM: 10 μM compound; for hERG % Remaining 30 μM: 30 μM compound. It counts as cell-based.

Sequence of hERG (Q12809 whole entry): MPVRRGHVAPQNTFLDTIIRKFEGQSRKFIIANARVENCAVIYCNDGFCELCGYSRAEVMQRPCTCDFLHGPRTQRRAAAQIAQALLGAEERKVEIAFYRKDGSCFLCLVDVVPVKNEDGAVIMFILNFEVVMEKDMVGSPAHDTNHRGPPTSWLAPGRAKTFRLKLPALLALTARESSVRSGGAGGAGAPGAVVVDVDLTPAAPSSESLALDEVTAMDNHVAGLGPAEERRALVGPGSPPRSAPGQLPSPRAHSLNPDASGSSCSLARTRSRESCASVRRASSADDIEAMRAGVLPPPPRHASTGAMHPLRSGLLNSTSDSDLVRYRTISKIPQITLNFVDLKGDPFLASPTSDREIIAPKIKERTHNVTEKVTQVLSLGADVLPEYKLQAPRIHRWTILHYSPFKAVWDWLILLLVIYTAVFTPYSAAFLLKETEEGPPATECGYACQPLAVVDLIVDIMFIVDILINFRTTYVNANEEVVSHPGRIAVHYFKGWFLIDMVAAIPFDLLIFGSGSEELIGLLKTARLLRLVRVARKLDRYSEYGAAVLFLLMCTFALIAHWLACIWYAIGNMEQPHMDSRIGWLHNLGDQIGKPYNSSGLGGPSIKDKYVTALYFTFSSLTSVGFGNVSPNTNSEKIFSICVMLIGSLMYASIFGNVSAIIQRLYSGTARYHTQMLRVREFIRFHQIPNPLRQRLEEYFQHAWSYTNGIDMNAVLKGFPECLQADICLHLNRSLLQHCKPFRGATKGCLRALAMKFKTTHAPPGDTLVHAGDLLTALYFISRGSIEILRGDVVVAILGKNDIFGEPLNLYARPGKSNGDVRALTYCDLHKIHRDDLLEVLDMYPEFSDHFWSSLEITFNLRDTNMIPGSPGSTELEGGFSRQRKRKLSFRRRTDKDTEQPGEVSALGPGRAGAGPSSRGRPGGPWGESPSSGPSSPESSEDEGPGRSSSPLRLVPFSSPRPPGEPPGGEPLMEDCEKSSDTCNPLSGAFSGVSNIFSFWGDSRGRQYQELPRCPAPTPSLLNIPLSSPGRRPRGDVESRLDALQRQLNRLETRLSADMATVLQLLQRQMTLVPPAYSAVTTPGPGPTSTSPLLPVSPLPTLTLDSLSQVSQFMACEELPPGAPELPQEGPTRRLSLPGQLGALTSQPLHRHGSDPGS

In the case of `CC(C)N(C(=O)c1cc(F)ccc1Oc1cncnc1N1CC2(CCN(C[C@@H]3CC[C@@H](NS(=O)(=O)c4cnn(C(F)F)c4)CO3)CC2)C1)C(C)C` [Compound 85, 2-((4-(7-(((2S,5R)-5-((1-(Difluoromethyl)-1H-pyrazole)-4-sulfonamido)tetrahydro-2H-pyran-2-yl)methyl)-2,7-diazaspiro[3.5]nonan-2-yl)pyrimidin-5-yl)oxy)-5-fluoro-N,N-diisopropylbenzamide], the inhibition constant (Ki) on Menin-MLL is less than 1 nM. At hERG, the “hERG % Remaining 10 μM” value is “++ (“++” means ≥33% and <66%)”; the “hERG % Remaining 30 μM” value was “+ (“+” means <33%)”.

For `CC(C)N(CC(F)F)C(=O)c1cc(F)ccc1Oc1cncnc1N1CC2(CCN(C[C@@H]3CC[C@@H](NS(=O)(=O)c4nn(C)cc4F)CO3)CC2)C1` [Compound 241, N-(2,2-Difluoroethyl)-5-fluoro-2-((4-(7-(((2S,5R)-5-((4-fluoro-1-methyl-1H-pyrazole)-3-sulfonamido)tetrahydro-2H-pyran-2-yl)methyl)-2,7-diazaspiro[3.5]nonan-2-yl)pyrimidin-5-yl)oxy)-N-isopropylbenzamide], at Menin-MLL, the Ki is less than 1 nM. The “hERG % Remaining 30 μM” value at hERG was “++ (“++” means ≥33% and <66%)”.

On to `CCN(CC)S(=O)(=O)N[C@@H]1CC[C@@H](CN2CCC3(CC2)CN(c2ncncc2Oc2ccc(F)cc2C(=O)N(C(C)C)[C@H]2CCOC2)C3)OC1` [Compound 175, 2-((4-(7-(((2S,5R)-5-((N,N-Diethylsulfamoyl)amino)tetrahydro-2H-pyran-2-yl)methyl)-2,7-diazaspiro[3.5]nonan-2-yl)pyrimidin-5-yl)oxy)-5-fluoro-N-isopropyl-N-((S)-tetrahydrofuran-3-yl)benzamide], for which, at Menin-MLL, the Ki is less than 1 nM. Besides, on hERG, the “hERG % Remaining 10 μM” value is “++ (“++” means ≥33% and <66%)”; the “hERG % Remaining 30 μM” value is “+ (“+” means <33%)”.

As for `CCNS(=O)(=O)N[C@@H]1CC[C@@H](CN2CCC3(CC2)CN(c2ncnnc2Oc2ccc(F)cc2C(=O)N(CC(F)(F)F)C(C)C)C3)OC1` (single isomer, unassigned) [Compound 193], the Ki on Menin-MLL is less than 1 nM. Moreover, at hERG, the “hERG % Remaining 30 μM” value is given as “+++ (“+++” means ≥66%)” and the IC50 is no less than 50000 nM.

For `C[C@@H]1COC[C@@H](C)N1C(=O)c1cc(F)ccc1Oc1cncnc1N1CC2(CCN(C[C@@H]3CC[C@@H](NS(=O)(=O)N4CCC4)CO3)CC2)C1` [Compound 121, N-((3R,6S)-6-((2-(5-(2-((3R,5R)-3,5-Dimethylmorpholine-4-carbonyl)-4-fluorophenoxy)pyrimidin-4-yl)-2,7-diazaspiro[3.5]nonan-7-yl)methyl)tetrahydro-2H-pyran-3-yl)azetidine-1-sulfonamide], the Ki on Menin-MLL was less than 1 nM. Besides, on hERG, the “hERG % Remaining 30 μM” value was “+++ (“+++” means ≥66%)”.

For the compound `Cc1nc(S(=O)(=O)N[C@@H]2CC[C@@H](CN3CCC4(CC3)CN(c3ncncc3Oc3ccc(F)cc3C(=O)N3[C@H](C)COC[C@H]3C)C4)OC2)cs1` [Compound 122, N-((3R,6S)-6-((2-(5-(2-((3R,5R)-3,5-Dimethylmorpholine-4-carbonyl)-4-fluorophenoxy)pyrimidin-4-yl)-2,7-diazaspiro[3.5]nonan-7-yl)methyl)tetrahydro-2H-pyran-3-yl)-2-methylthiazole-4-sulfonamide], the inhibition constant (Ki) on Menin-MLL was less than 1 nM. For the same compound, on hERG, the “hERG % Remaining 30 μM” value is on record as “+++ (“+++” means ≥66%)” and the IC50 was no less than 50000 nM.

`Cc1ncc(S(=O)(=O)N[C@@H]2CC[C@@H](CN3CCC4(CC3)CN(c3ncncc3Oc3ccc(F)cc3C(=O)N(C(C)C)C(C)C)C4)OC2)o1` [Compound 80, 5-Fluoro-N,N-diisopropyl-2-((4-(7-(((2S,5R)-5-((2-methyloxazole)-5-sulfonamido)tetrahydro-2H-pyran-2-yl)methyl)-2,7-diazaspiro[3.5]nonan-2-yl)pyrimidin-5-yl)oxy)benzamide]: the inhibitory constant (Ki) on Menin-MLL was less than 1 nM. In addition, at hERG, the “hERG % Remaining 10 μM” value is “++ (“++” means ≥33% and <66%)”; the “hERG % Remaining 30 μM” value is given as “+ (“+” means <33%)”.

For `CCNS(=O)(=O)N[C@@H]1CC[C@@H](CN2CCC3(CC2)CN(c2ncncc2Oc2ccc(F)cc2C(=O)N(CC)C(C)C)C3)OC1` [Compound 141, N-Ethyl-2-((4-(7-(((2S,5R)-5-((N-ethylsulfamoyl)amino)tetrahydro-2H-pyran-2-yl)methyl)-2,7-diazaspiro[3.5]nonan-2-yl)pyrimidin-5-yl)oxy)-5-fluoro-N-isopropylbenzamide], at Menin-MLL, the inhibition constant Ki was less than 1 nM. In addition, the “hERG % Remaining 30 μM” value on hERG is recorded as “+++ (“+++” means ≥66%)”.

As for `CC(C)N(CC(F)F)C(=O)c1cc(F)ccc1Oc1cncnc1N1CC2(CCN(C[C@@H]3CC[C@@H](NS(=O)(=O)N(C)C(C)C)CO3)CC2)C1` [Compound 101, N-(2,2-Difluoroethyl)-5-fluoro-N-isopropyl-2-((4-(7-(((2S,5R)-5-((N-isopropyl-N-methylsulfamoyl)amino)tetrahydro-2H-pyran-2-yl)methyl)-2,7-diazaspiro[3.5]nonan-2-yl)pyrimidin-5-yl)oxy)benzamide], at Menin-MLL, the Ki was less than 1 nM. Further, the “hERG % Remaining 30 μM” value on hERG is “+ (“+” means <33%)”.

Turning to `CCN(C(=O)c1cc(F)ccc1Oc1cncnc1N1CC2(CCN(C[C@@H]3CC[C@@H](NS(=O)(=O)c4csc(C)n4)CO3)CC2)C1)C(C)C` [Compound 71, N-Ethyl-5-fluoro-N-isopropyl-2-((4-(7-(((2S,5R)-5-((2-methylthiazole)-4-sulfonamido)tetrahydro-2H-pyran-2-yl)methyl)-2,7-diazaspiro[3.5]nonan-2-yl)pyrimidin-5-yl)oxy)benzamide], at Menin-MLL, the EC50 is less than 50 nM and the Ki was less than 1 nM. Moreover, at hERG, the “hERG % Remaining 10 μM” value is on record as “+++ (“+++” means ≥66%)”; the “hERG % Remaining 30 μM” value is “++ (“++” means ≥33% and <66%)”.

On to `Cc1c(S(=O)(=O)N[C@@H]2CC[C@@H](CN3CCC4(CC3)CN(c3ncncc3Oc3ccc(F)cc3C(=O)N(CC(F)F)C(C)C)C4)OC2)cnn1C` [Compound 104, N-(2,2-Difluoroethyl)-2-((4-(7-(((2S,5R)-5-((1,5-dimethyl-1H-pyrazole)-4-sulfonamido)tetrahydro-2H-pyran-2-yl)methyl)-2,7-diazaspiro[3.5]nonan-2-yl)pyrimidin-5-yl)oxy)-5-fluoro-N-isopropylbenzamide], for which the Ki at Menin-MLL was less than 1 nM. In addition, the “hERG % Remaining 30 μM” value at hERG is recorded as “+++ (“+++” means ≥66%)”.

On to `CCN(C(=O)c1cc(F)ccc1Oc1cncnc1N1CC2(CCN(C[C@@H]3CC[C@@H](NS(=O)(=O)N4CCC[C@@H]4C)CO3)CC2)C1)C(C)C` [Compound 201, N-Ethyl-5-fluoro-N-isopropyl-2-((4-(7-(((2S,5R)-5-(((S)-2-methylpyrrolidine)-1-sulfonamido)tetrahydro-2H-pyran-2-yl)methyl)-2,7-diazaspiro[3.5]nonan-2-yl)pyrimidin-5-yl)oxy)benzamide], for which, on Menin-MLL, the Ki was less than 1 nM. On hERG, the “hERG % Remaining 10 μM” value is listed as “+ (“+” means <33%)” and the “hERG % Remaining 30 μM” value is “+ (“+” means <33%)”.

As to `CC(C)N(C(=O)c1cc(F)ccc1Oc1nncnc1N1CC2(CCN(C[C@@H]3CC[C@@H](NS(=O)(=O)C4CC4)CO3)CC2)C1)C(C)C` [Compound 196, 2-((5-(7-(((2S,5R)-5-(Cyclopropanesulfonamido)tetrahydro-2H-pyran-2-yl)methyl)-2,7-diazaspiro[3.5]nonan-2-yl)-1,2,4-triazin-6-yl)oxy)-5-fluoro-N,N-diisopropylbenzamide], on Menin-MLL, the Ki is less than 1 nM. For the same compound, the “hERG % Remaining 30 μM” value at hERG is “+++ (“+++” means ≥66%)”.

`CC(C)N(CC(F)(F)F)C(=O)c1cc(F)ccc1Oc1cncnc1N1CC2(CCN(C[C@@H]3CC[C@@H](NS(=O)(=O)N(C)C)CO3)CC2)C1` [Compound 107, 2-((4-(7-(((2S,5R)-5-((N,N-Dimethylsulfamoyl)amino)tetrahydro-2H-pyran-2-yl)methyl)-2,7-diazaspiro[3.5]nonan-2-yl)pyrimidin-5-yl)oxy)-5-fluoro-N-isopropyl-N-(2,2,2-trifluoroethyl)benzamide]: on Menin-MLL, the EC50 is less than 50 nM and the Ki was less than 1 nM. On hERG, the “hERG % Remaining 10 μM” value is “+++ (“+++” means ≥66%)”; the “hERG % Remaining 30 μM” value was “++ (“++” means ≥33% and <66%)”.

As to `CCN(C(=O)c1cc(F)ccc1Oc1cncnc1N1CC2(CCN(C[C@@H]3CC[C@@H](NS(=O)(=O)c4cnc(C)o4)CO3)CC2)C1)C(C)C` [Compound 72, N-Ethyl-5-fluoro-N-isopropyl-2-((4-(7-(((2S,5R)-5-((2-methyloxazole)-5-sulfonamido)tetrahydro-2H-pyran-2-yl)methyl)-2,7-diazaspiro[3.5]nonan-2-yl)pyrimidin-5-yl)oxy)benzamide], the Ki on Menin-MLL is less than 1 nM. Also, at hERG, the “hERG % Remaining 10 μM” value is “++ (“++” means ≥33% and <66%)”; the “hERG % Remaining 30 μM” value is recorded as “+ (“+” means <33%)”.

With `CCNS(=O)(=O)N[C@@H]1CC[C@@H](CN2CCC3(CC2)CN(c2ncncc2Oc2ccc(F)cc2C(=O)N(CC(F)(F)F)C(C)C)C3)OC1` [Compound 153, 2-((4-(7-(((2S,5R)-5-((N-Ethylsulfamoyl)amino)tetrahydro-2H-pyran-2-yl)methyl)-2,7-diazaspiro[3.5]nonan-2-yl)pyrimidin-5-yl)oxy)-5-fluoro-N-isopropyl-N-(2,2,2-trifluoroethyl)benzamide], the Ki on Menin-MLL is less than 1 nM. In addition, at hERG, the “hERG % Remaining 30 μM” value is on record as “+++ (“+++” means ≥66%)” and the IC50 was no less than 50000 nM.

On to `C[C@@H]1COC[C@@H](C)N1C(=O)c1cc(F)ccc1Oc1cncnc1N1CC2(CCN(C[C@@H]3CC[C@@H](NS(=O)(=O)c4ccccc4)CO3)CC2)C1` [Compound 120, N-((3R,6S)-6-((2-(5-(2-((3R,5R)-3,5-Dimethylmorpholine-4-carbonyl)-4-fluorophenoxy)pyrimidin-4-yl)-2,7-diazaspiro[3.5]nonan-7-yl)methyl)tetrahydro-2H-pyran-3-yl)benzenesulfonamide], for which, on Menin-MLL, the EC50 was less than 50 nM and the Ki was less than 1 nM. Further, at hERG, the “hERG % Remaining 10 μM” value is “+++ (“+++” means ≥66%)”; the “hERG % Remaining 30 μM” value was “++ (“++” means ≥33% and <66%)”.
